From PMC3814370, “Functional assignment of KEOPS/EKC complex subunits in the biosynthesis of the universal t^6A tRNA modification” (Nucleic Acids Research, 2013)

Columns and labels:
Type in all cases: biochemical
[1] = molecular target: T1, PaKEOPS (Pcc1-Kae1-Bud32-Cgi121) (Pyrococcus abyssi, UniProt Q9UYB9); assay: TLC of radiolabelled ATP hydrolysis; details: 100 uM ATP, 50 °C, 30 min, with or without tRNA; reconstituted complex; labelled compound
T1 construct: recombinant from E. coli Rosetta2, His-tag purification; whole complex or reconstituted from Pcc1-Kae1 plus Bud32-Cgi121; homodimer of the heterotetramer; with tRNA N6-adenosine threonylcarbamoyltransferase; KEOPS complex Pcc1-like subunit; Regulatory protein Cgi121

[2] = molecular target: T1, PaKEOPS (Pcc1-Kae1-Bud32-Cgi121); assay: TLC of radiolabelled ATP hydrolysis; details: 100 uM ATP, 50 °C, 30 min; stimulated by tRNA; labelled compound
[3] = molecular target: T2, Kae1-Bud32 binary complex (Pyrococcus abyssi, UniProt Q9UYB9); assay: TLC of radiolabelled ATP hydrolysis; details: 100 uM ATP, 50 °C, 30 min; independent of tRNA; labelled compound
T2 construct: recombinant from E. coli Rosetta2, His-tag purification; binary complex, monomeric form; with tRNA N6-adenosine threonylcarbamoyltransferase

[4] = molecular target: T3, Kae1-Bud32-Cgi121 ternary complex (Pyrococcus abyssi, UniProt Q9UYB9); assay: TLC of radiolabelled ATP hydrolysis; details: 100 uM ATP, 50 °C, 30 min; independent of tRNA; labelled compound
T3 construct: recombinant from E. coli Rosetta2, His-tag purification; ternary complex, monomeric form; with tRNA N6-adenosine threonylcarbamoyltransferase; Regulatory protein Cgi121

[5] = molecular target: T4, Bud32-Cgi121 binary complex (Pyrococcus abyssi, UniProt Q9UYB9); assay: autophosphorylation with gamma-32P ATP, SDS-PAGE phosphorimaging; details: 25 uM cold ATP, 55 °C, 30 min; no ATPase activity in TLC assay; labelled compound
T4 construct: recombinant from E. coli Rosetta2, His-tag purification; binary complex, monomeric form; with Regulatory protein Cgi121
T4 sequence (Q9UYB9 1-220): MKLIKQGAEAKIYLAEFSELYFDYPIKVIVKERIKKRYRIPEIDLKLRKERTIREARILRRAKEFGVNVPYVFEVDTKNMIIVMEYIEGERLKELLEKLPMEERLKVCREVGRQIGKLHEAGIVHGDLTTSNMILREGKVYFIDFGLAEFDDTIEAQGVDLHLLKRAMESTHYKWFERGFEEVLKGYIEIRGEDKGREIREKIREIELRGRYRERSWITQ
T4 sequence (Q9UZ62 1-171 partner): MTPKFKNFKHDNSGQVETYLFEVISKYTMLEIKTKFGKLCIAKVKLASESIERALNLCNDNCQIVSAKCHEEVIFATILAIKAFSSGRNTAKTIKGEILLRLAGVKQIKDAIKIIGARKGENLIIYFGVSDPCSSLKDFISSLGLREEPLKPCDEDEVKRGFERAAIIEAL

[6] = molecular target: T1, PaKEOPS (Pcc1-Kae1-Bud32-Cgi121); assay: TLC of radiolabelled ATP hydrolysis; details: 100 uM ATP, 50 °C, 30 min, with or without tRNA; reconstituted complex; labelled compound; remark: listed apart in the source
[7] = molecular target: T5, PaKEOPS (Pcc1-Kae1-Bud32-Cgi121) (Pyrococcus abyssi, UniProt Q9UYB9, D127R); assay: TLC of radiolabelled ATP hydrolysis; details: 100 uM ATP, 50 °C, 30 min, with or without tRNA; reconstituted complex; labelled compound
T5 construct: recombinant from E. coli Rosetta2, His-tag purification; whole complex or reconstituted from Pcc1-Kae1 plus Bud32-Cgi121; homodimer of the heterotetramer; with tRNA N6-adenosine threonylcarbamoyltransferase; KEOPS complex Pcc1-like subunit; Regulatory protein Cgi121

With `Nc1ncnc2c1ncn2[C@@H]1O[C@H](COP(=O)(O)OP(=O)(O)OP(=O)(O)O)[C@@H](O)[C@H]1O` [ATP] the “normal ATPase activity” value [1] was “the reconstituted mutant PaKEOPS exhibited normal ATPase activity”, the ATPase activity [2] was “the ATPase activity of the whole PaKEOPS complex is stimulated by the presence of tRNA” and the ATPase activity [3] was “binary complex Kae1–Bud32 exhibited a significant ATPase activity”. For the same compound, the ATPase activity [4] was “we recorded a significant ATPase activity that was independent of tRNA”, the autophosphorylation [5] was “When the reaction mixture contained only Bud32–Cgi121, a significant autophosphorylation activity of Bud32 was observed” and the “wild-type ATPase activity” value [6] was “PaKEOPS (Kae1^D159A) behaved in the same manner as the wild-type PaKEOPS”. For the same compound, the “ATPase activity totally lost” value [7] was “PaKEOPS (Bud32^D127R) totally lost the ATPase activity”.
